Source: US20080220069A1, “Long Acting Injectable Crystal Formulations of Estradiol Metabolites and Methods of Using Same” (PR PHARMACEUTICALS, INC., priority 2004, published 2008)

Key:
[1] = room temperature
[2] = In vivo pharmacokinetics of 2ME crystal preparation with broad size distribution (Example 2), plasma 2ME by gas chromatography-mass detection; details: rat, 5 mg/rat subcutaneous
Method: The material generated in Example 1 was ground in a mortar and pestle, sieved through a 180 um screen, and the particle size distribution of the sieved material was measured on a Coulter LS13320 Particle Size analyzer.
On day 0, animals in all treatment groups received 5 mg/rat of 2ME in 0.25 ml injection vehicle consisting of 2.0% w/v sodium carboxymethylcellulose containing 0.01% w/v Tween 80 and 0.1% w/v SDS by subcutaneous injection using a 1 cc syringe and a 1″, 20-gauge needle. On Day—3 blood was collected from all rats via the tail vein. On Days 1, 3, 7, 21, 28, and 35, all rats were bled via the lateral tail vein. Plasma samples were extracted, derivatized, and 2ME concentration was measured using a qualified gas chromatography-mass detection method. The plasma concentration profile of 2ME released from crystals with a broad size distribution is characterized by an initial burst followed by sustained blood levels of approximately 5 ng/ml between days 3 and 28.

[3] = In vivo pharmacokinetics of altered crystal form (hemi hydrate) of 2ME (Example 6); details: rat, 5 mg/rat subcutaneous, hemi hydrate crystals approx. 10 μm, by day 28
Method: A solution of 2-methoxyestradiol (2ME) (Tetrionics, Madison, Wis.) was made in n-methylpyrrolidone at a 10% w/v concentration. One volume of the 2ME solution was added to 1000 volumes of water stirring rapidly at 23° C. The mixture was allowed to stir prior to the addition of sodium dodecyl sulfate (SDS) to a final concentration of 0.1% w/v. The 2ME was collected by sedimentation and washed twice with 0.1% SDS.
(§1) On day 0, each animal in the treatment group (n=6) received 5 mg/rat of 2ME in 0.25 ml injection vehicle consisting of 0.5% w/v sodium carboxymethylcellulose containing 5% w/v mannitol and 0.05% w/v SDS by subcutaneous injection using a 1 cc syringe and a 1 inch, 20-gauge needle. On Day—3 blood was collected from all rats via the tail vein. Rats were bled periodically via the lateral tail vein. Plasma samples were extracted, derivatized, and 2ME concentration was measured using a qualified gas chromatography-mass spectroscopy detection method. Plasma concentrations versus time are plotted in FIG. 2.

[4] = In vivo pharmacokinetics of 2ME particles ranging from 90 to 180 micrometers (Example 7); details: rat, 5 mg/rat subcutaneous, particles 90 to 180 micrometers
Method: as §1, with “A portion of the 2-methoxyestradiol prepared in Example 1 was ground in a mortar and pestle and sieved through stainless steel screens to generate a population of particles ranging from 90 to 180 micrometers. On day” for “On day”, “in FIG. 3.” for “in FIG. 2.”

[5] = rat, 16 mg subcutaneous in 2.5% w/v sodium carboxymethylcellulose, after 15 days

C[C@]12CC[C@@H]3c4cc(O)c(O)cc4CC[C@H]3[C@@H]1CC[C@@H]2O [2-hydroxyestradiol]
water solubility [1]: approximately 0.155 mg/ml

COc1cc2c(cc1O)CC[C@@H]1[C@@H]2CC[C@]2(C)[C@@H](O)CC[C@@H]12 [2ME, 2-methoxyestradiol]
sustained blood levels of 2ME ([2]; crystals 48.98±36.95 μm, between days 3 and 28): approximately 5 ng/ml
2ME blood levels ([2]; crystals 48.98±36.95 μm, by day 35): fallen to zero
plasma concentration profile, initial phase ([2]; crystals with a broad size distribution): initial burst
plasma 2ME concentrations [3]: fallen to zero
2ME in plasma ([4]; day 51): still measurable
initial plasma concentrations ([4]; first week): low initial plasma concentrations

COc1cc2c(cc1OC(=O)c1ccccc1)CC[C@@H]1[C@@H]2CC[C@]2(C)[C@@H](O)CC[C@@H]12 [3-benzoyl-2-methoxyestradiol]
water solubility of the esterified compound, fold lower than parent estradiol metabolite ([1]; same conditions as parent): approximately 3 fold
release of the injected dose (chromatographic analysis of dissected injection site) [5]: 6.2%±1.2
